Experimental data reported in patent publication US20040191297A1, “Carotenoid formulation” (priority 1997, published 2004).

Key:
[1] = Carotenoid content of Lycopene Suspension-supplemented diets after 7 months storage; type: physicochemical; details: for Carotenoid content of diet: stored at −20 °C for 7 months
Protocol: When the Lycopene Suspension (Henkel Corporation, La Grange, Ill.) was extracted by organic extraction methods, the major carotenoid was lycopene, but a number of other carotenoids were known to be present in tomatoes, α- and β-Carotene, phytofluene and phytoene were also present (FIGS. 6 & 7). The quantitative profile of carotenoids in the Lycopene Suspension was carried out using an HPLC system as described above, equipped with a photodiode array detector. The six major components can be seen in Table 7.
(Table 10). Note that all the major carotenoids plus the lycopene metabolite present in the Lycopene Suspension are present in the diets in the same relative proportions. However, the net loss of lycopene over 7 months was 66%, 38%, 40%, 44% and 60%, in treatment groups 1-5, respectively; in contrast, β-carotene concentrations declined by only 10% of original values over the same time period.

[2] = Lycopene content of rat serum; type: in vivo, Fischer 344 rats
Protocol: Prior to termination, 3 animals from each group were placed in metabolic cages and 24-hour urine and fecal collections made for subsequent lycopene assay. Blood was collected by heart puncture under anesthesia for lycopene assay and all animals were sacrificed by CO2 anesthesia. Blood and feces were stored at −20° C. At necropsy, all major organ systems were grossly inspected. Any unusual appearing tissues were placed in formalin and saved for later histological examination.
Extraction of lycopene from serum was conducted by adding 1 ml of serum to 0.1 ml echinenone standard in ethanol and 0.9 ml ethanol. The mixture was then vortexed for 20 seconds, and 2.0 ml hexane added and mixed vigorously for 1 minute. The cloudy mixture was then centrifuged at 3,000 rpm for 15 minutes at 4° C. and the clear hexane layer was decanted. The above procedure was repeated 3-5×. The pooled hexane fraction was then dried under N2 gas at 60° C., and the residue dissolved in 0.5 ml HPLC solvent and analyzed by HPLC.

[3] = Preliminary feeding study, one male rat, 3 weeks; type: in vivo; details: 2.5 mM/kg diet
Protocol: One male rat was fed 2.5 mM lycopene (+other carotenoids)/kg diet for a period of 3 weeks. At this high dose, no change in body weight or food consumption was seen. […] The tail was brown. At necropsy, the liver was a deep red, as was the cecum and small intestine.

[4] = Lycopene content of rat prostate gland; type: in vivo, Fischer 344 rats; details: male
Description: homogenized. […] This hexane extraction procedure was repeated 5-7 times.

retinol = assay: Liver vitamin A assay; type: in vivo, Fischer 344 rats; details: for Liver retinol: female
Description: (§1) The effect of the tomato carotenoid supplement on the absorption and storage of two important fat soluble vitamins, namely, retinol and α-tocopherol, was investigated. Using established HPLC methods, a strong liner dose-response relationship was found between the lycopene content of the liver and both retinol and a-tocopherol concentration in female R-344 rats (Table 23).

in vivo = details: Fischer 344, rat
Protocol: Breast, liver and prostate tissue contain lipids which interfere with the assay. Consequently, a saponification step was required prior to organic extraction. Tissue was homogenized in 20 ml methanol to which echinenone was added as internal standard. For breast tissue, which comprise of 85% adipocytes, 8.0 ml 50% NaOH and 4.0 ml 25% sodium ascorbate was added and the mixture was homogenized. For prostate and liver tissue, which contain less lipid, 4.0 ml and 50% NaOH. and 2.0 ml sodium ascorbate were added and the mixture was
homogenized. Saponification was carried out in 50 ml tubes saturated with N2 gas overnight in a temperature controlled shaker bath at 30° C. Following saponification, 10 ml hexane was add d to each tube and vortexed for 1 minute. The mixture was then centrifuged at 2000 rpm for 10 min at 4° C. and the hexane layer was decanted and saved. This hexane extraction procedure was repeated 5-7 times. The pooled hexane extract was then dried under N2 gas at 60° C., dissolved in injection solvent and analyzed by HPLC. Lung and colon tissue were processed in an identical manner with the exception that the saponification step was omitted.

[5] = Stability of lycopene incorporated into AIN-76A diet at ambient temperature in food cup (air and light); type: physicochemical; details: for Concentration: ambient temperature
Protocol: At various time points, a diet sample was taken and lycopene was extracted as follows: Approximately 0.5 to 1.0 g of sample was added to a 15 ml volume of extraction solvent consisting of 40% acetonitrile, 20% hexane, 20% methanol and 20% methylenechloride. The mixture was sonicated for 2 minutes and allowed to stand for 5 minutes. The reddish-orange clear supernatant was then decanted. This process was repeated 4 times, at which time the supernatant was colorless. Solvent was then added to a volume of 25 to 100 ml, the mixture centrifuged, and the supernatant decanted. All supernatants were then mixed. The above solvent serves two purposes; first, it is the most efficient mixture for lycopene, and second, it is the same solvent used for injecting lycopene samples into the HPLC.
The second was by exposing the lycopene-containing diet to air and light, as is the case in an actual feeding study. The stability of lycopene in the food cup where it is exposed to light and air is seen in Table 9.

α-tocopherol = assay: Liver vitamin E assay; type: in vivo, Fischer 344 rats; details: for Liver α-tocopherol: female
Description: as §1

[6] = female, Group 1 (1280 mg/kg diet)
[7] = female, Group 2 (512 mg/kg diet)
[8] = female, Group 3 (256 mg/kg diet)
[9] = female, Group 5 (51 mg/kg diet)
[10] = male, Group 1 (1280 mg/kg diet)
[11] = Group 1, lycopene 1280 mg/kg diet
[12] = Group 3, lycopene 256 mg/kg diet
[13] = Group 4, lycopene 128 mg/kg diet
[14] = Group 5, lycopene 51 mg/kg diet

Compound: CC(C)=CCC/C(C)=C/C=C/C(C)=C/C=C/C(C)=C/C=C/C=C(C)/C=C/C=C(C)/C=C/C=C(\C)CCC=C(C)C [Lycopene]
- Carotenoid content of diet ([1]; Diet 1, 2.5 mM/kg diet): 472 μg/gm (ppm)
- Carotenoid content of diet ([1]; Diet 2, 1.0 mM/kg diet): 348 μg/gm (ppm)
- Carotenoid content of diet ([1]; Diet 3, 0.5 mM/kg diet): 168 μg/gm (ppm)
- Carotenoid content of diet ([1]; Diet 4, 0.25 mM/kg diet): 92 μg/gm (ppm)
- Carotenoid content of diet ([1]; Diet 5, 0.10 mM/kg diet): 22 μg/gm (ppm)
- net loss over 7 months ([1]; diet of treatment group 1, 7 months storage): 66%
- net loss over 7 months ([1]; diet of treatment group 2, 7 months storage): 38%
- net loss over 7 months ([1]; diet of treatment group 3, 7 months storage): 40%
- net loss over 7 months ([1]; diet of treatment group 4, 7 months storage): 44%
- net loss over 7 months ([1]; diet of treatment group 5, 7 months storage): 60%
- concentration at 10 weeks ([2]; both sexes, Fischer 344, rat, serum, oral, all supplemented groups, males and females, read-out: Serum lycopene levels, overall low to high): 80 to 370 ng/mL
- Lycopene content of serum, Median [2, 6]: 205 ng/mL
- Lycopene content of serum, Range [2, 6]: 123 to 232 ng/mL
- Lycopene content of serum, mean ± SD [2, 6]: 187 ± 043 ng/mL
- Lycopene content of serum, Median [2, 7]: 180 ng/mL
- Lycopene content of serum, Range [2, 7]: 109 to 211 ng/mL
- Lycopene content of serum, mean ± SD [2, 7]: 169 ± 042 ng/mL
- Lycopene content of serum, Median [2, 8]: 210 ng/mL
- Lycopene content of serum, Range [2, 8]: 174 to 366 ng/mL
- Lycopene content of serum, mean ± SD [2, 8]: 245 ± 083 ng/mL
- Lycopene content of serum, Median [2, 9]: 152 ng/mL
- Lycopene content of serum, Range [2, 9]: 081 to 207 ng/mL
- Lycopene content of serum, mean ± SD [2, 9]: 145 ± 053 ng/mL
- Lycopene content of serum, Median [2, 10]: 160 ng/mL
- Lycopene content of serum, Range [2, 10]: 134 to 230 ng/mL
- Lycopene content of serum, mean ± SD [2, 10]: 168 ± 036 ng/mL
- Lycopene content of serum, Median ([2]; male, Group 2 (512 mg/kg diet)): 225 ng/mL
- Lycopene content of serum, Range ([2]; male, Group 2 (512 mg/kg diet)): 148 to 326 ng/mL
- Lycopene content of serum, mean ± SD ([2]; male, Group 2 (512 mg/kg diet)): 227 ± 068 ng/mL
- Lycopene content of serum, Median ([2]; male, Group 3 (256 mg/kg diet)): 285 ng/mL
- Lycopene content of serum, Range ([2]; male, Group 3 (256 mg/kg diet)): 174 to 372 ng/mL
- Lycopene content of serum, mean ± SD ([2]; male, Group 3 (256 mg/kg diet)): 278 ± 066 ng/mL
- Lycopene content of serum, Median ([2]; male, Group 4 (128 mg/kg diet)): 215 ng/mL
- Lycopene content of serum, Range ([2]; male, Group 4 (128 mg/kg diet)): 153 to 328 ng/mL
- Lycopene content of serum, mean ± SD ([2]; male, Group 4 (128 mg/kg diet)): 231 ± 064 ng/mL
- Lycopene content of serum, Median ([2]; male, Group 5 (51 mg/kg diet)): 177 ng/mL
- Lycopene content of serum, Range ([2]; male, Group 5 (51 mg/kg diet)): 100 to 238 ng/mL
- Lycopene content of serum, mean ± SD ([2]; male, Group 5 (51 mg/kg diet)): 171 ± 049 ng/mL
- change in body weight or food consumption [3]: no change
- Lycopene content of prostate gland, Median ([4]; Group 1 (1280 mg/kg diet)): 99 ng/g
- Lycopene content of prostate gland, Range ([4]; Group 1 (1280 mg/kg diet)): 79 to 112 ng/g
- Lycopene content of prostate gland, mean ± SD ([4]; Group 1 (1280 mg/kg diet)): 97 ± 17 ng/g
- Lycopene content of prostate gland, Median ([4]; Group 2 (512 mg/kg diet)): 83 ng/g
- Lycopene content of prostate gland, Range ([4]; Group 2 (512 mg/kg diet)): 54 to 147 ng/g
- Lycopene content of prostate gland, mean ± SD ([4]; Group 2 (512 mg/kg diet)): 95 ± 48 ng/g
- Lycopene content of prostate gland, Median ([4]; Group 3 (256 mg/kg diet)): 35 ng/g
- Lycopene content of prostate gland, Range ([4]; Group 3 (256 mg/kg diet)): 23 to 93 ng/g
- Lycopene content of prostate gland, mean ± SD ([4]; Group 3 (256 mg/kg diet)): 50 ± 37 ng/g
- Lycopene content of prostate gland, Median ([4]; Group 4 (128 mg/kg diet)): 52 ng/g
- Lycopene content of prostate gland, Range ([4]; Group 4 (128 mg/kg diet)): 26 to 77 ng/g
- Lycopene content of prostate gland, mean ± SD ([4]; Group 4 (128 mg/kg diet)): 52 ± 26 ng/g
- Lycopene content of prostate gland, Median ([4]; Group 5 (51 mg/kg diet)): 47 ng/g
- Lycopene content of prostate gland, Range ([4]; Group 5 (51 mg/kg diet)): 32 to 63 ng/g
- Lycopene content of prostate gland, mean ± SD ([4]; Group 5 (51 mg/kg diet)): 47 ± 16 ng/g
- difference in liver retinol between controls and the highest lycopene dose (retinol; female rats): 10 fold
- Liver retinol (retinol; [11]): 1302 μg/gm
- Liver retinol (retinol; Group 2, lycopene 512 mg/kg diet): 768 μg/gm
- Liver retinol (retinol; [12]): 858 μg/gm
- Liver retinol (retinol; [13]): 888 μg/gm
- Liver retinol (retinol; [14]): 555 μg/gm
- Kp (in vivo): 100 to 1000
- stability in the diet ([5]; 7 days at ambient light and temperature): stable
- Concentration ([5]; AIN-76A diet, 0 days in food cup): 744 µg/g
- Concentration ([5]; 2 days in food cup): 702 µg/g
- Concentration ([5]; 3 days in food cup): 616 µg/g
- Concentration ([5]; 6 days in food cup): 547 µg/g
- Concentration ([5]; 7 days in food cup): 439 µg/g
- Concentration ([5]; 9 days in food cup): 624 µg/g
- Concentration ([5]; 10 days in food cup): 576 µg/g
- Concentration ([5]; 13 days in food cup): 449 µg/g
- Concentration ([5]; 14 days in food cup): 419 µg/g
- Concentration ([5]; 15 days in food cup): 425 µg/g
- Concentration ([5]; 17 days in food cup): 431 µg/g
- Concentration ([5]; 20 days in food cup): 385 µg/g
- Concentration ([5]; 21 days in food cup): 376 µg/g
- original lycopene no longer measurable ([5]; food cup, air and light, 3 weeks): one-half
- lycopene lost ([5]; food cup, air and light, 48-hour period): a small amount is lost
- total lycopene lost ([5]; food cup, air and light, 72 hours): approximately 20%
- difference in liver α-tocopherol between controls and the highest lycopene dose (α-tocopherol; female rats): 4 fold
- Liver α-tocopherol (α-tocopherol; [11]): 47 μg/gm
- Liver α-tocopherol (α-tocopherol; [12]): 39 μg/gm
- Liver α-tocopherol (α-tocopherol; [13]): 46 μg/gm
- Liver α-tocopherol (α-tocopherol; [14]): 32 μg/gm
